Values of other authors as cited in patent US20240099974A1, “TREATMENT AGENT” (FUJIFILM Corporation, priority 2021, published 2024).

Conditions: iv; Mould et al., 2002, Ait-Oudhia, Mager and Straubinger 2014

clearance in a case where topotecan is intravenously administered: 18.6 L/h
Structure (SMILES): CC[C@@]1(O)C(=O)OCc2c1cc1n(c2=O)Cc2cc3c(CN(C)C)c(O)ccc3nc2-1 [topotecan]
